Converted amounts (≈) assume the structure as drawn.
Key:
Format in all cases: functional
[1] = tested on: Haemophilus influenzae; test: Antimicrobial activity against LS2 Efflux knock-out Haemophilus influenzae
[2] = tested on: Staphylococcus aureus; test: Antimicrobial activity against vancomycin-susceptible Staphylococcus aureus ATCC 25923
[3] = tested on: Pseudomonas aeruginosa; test: Antimicrobial activity against Pseudomonas aeruginosa ATCC 27853
[4] = tested on: Enterococcus faecium; test: Antimicrobial activity against vancomycin-resistant Enterococcus faecium
[5] = tested on: Enterococcus faecalis; test: Antimicrobial activity against vancomycin-susceptible Enterococcus faecalis ATCC 29212
[6] = tested on: Staphylococcus aureus; test: Antimicrobial activity against methicillin-sensitive Staphylococcus aureus ATCC 13709
[7] = tested on: Staphylococcus aureus; test: Antimicrobial activity against Staphylococcus aureus Oxford
[8] = tested on: Escherichia coli; test: Antimicrobial activity against Escherichia coli 49
[9] = tested on: Escherichia coli; test: Antimicrobial activity against Escherichia coli 50
[10] = tested on: Haemophilus influenzae; test: Antimicrobial activity against Haemophilus influenzae ATCC 31517 MMSA
[11] = tested on: Streptococcus pneumoniae; test: Antimicrobial activity against erythromycin-susceptible Streptococcus pneumoniae ATCC 49619
[12] = tested on: Escherichia coli; test: Antimicrobial activity against Escherichia coli ATCC 25922
[13] = tested on: Staphylococcus aureus; test: Antimicrobial activity against methicillin-resistant Staphylococcus aureus
[14] = tested on: Streptococcus pneumoniae; test: Antimicrobial activity against penicillin- and erythromycin-resistant Streptococcus pneumoniae in presence of 2.5% horse blood
[15] = tested on: Streptococcus pneumoniae; test: Antimicrobial activity against penicillin- and erythromycin-resistant Streptococcus pneumoniae

Row | SMILES | MIC [1] [mg/L] | MIC [2] [mg/L] | MIC [3] [mg/L] | MIC [4] [mg/L] | MIC [5] [mg/L] | MIC [6] [mg/L] | MIC [7] [mg/L] | MIC [8] [mg/L] | MIC [9] [mg/L] | MIC [10] [mg/L] | MIC [11] [mg/L] | MIC [12] [mg/L] | MIC [13] [mg/L] | MIC [14] [mg/L] | MIC [15] [mg/L]
1 | CCCCCCCCCCC/C(Nc1ccc(NC(=O)COCC(=O)O)cc1)=C1\C(=O)CN(CCCCCC)C1=O | > 64 | > 64 | > 32 | > 64 | > 64 | > 64 | > 64 | > 32 | > 32 | > 64 | 2 (≈ 3.5 µM) | > 32 | > 64 | > 64 | 2 (≈ 3.5 µM)
2 | CCCCCCC(=O)N1CC(=O)/C(=C(\CCCCCC)NC2CCCCC2)C1=O | > 32 | > 32 | > 32 | > 32 | > 32 | > 32 | > 32 | > 32 | > 32 | > 32 | > 32 | > 32 | > 32 | > 32 | > 32
3 | CCOC(=O)[C@]12CO[C@H](C(C)(C)C)N1C(=O)/C(=C(/CC13CC4CC(C)(CC(C)(C4)C1)C3)NC(C)CCCN(CC)CC)C2=O (some centres not stated) | > 32 | > 32 | > 32 | > 32 | > 32 | > 32 | > 32 | > 32 | > 32 | > 32 | > 32 | > 32 | > 32 | > 32 | > 32
4 | CCOC(=O)[C@]12CO[C@H](C(C)(C)C)N1C(=O)/C(=C(\C)NCCCN1CCOCC1)C2=O | > 32 | > 32 | > 32 | > 32 | > 32 | > 32 | > 32 | > 32 | > 32 | > 32 | > 32 | > 32 | > 32 | > 32 | > 32
5 | CCCCCC/C(=C1/C(=O)N2[C@@H](C(C)(C)C)OC[C@]2(C(=O)OC)C1=O)N1CCCCC1 | > 32 | > 32 | > 32 | > 32 | > 32 | > 32 | > 32 | > 32 | > 32 | > 32 | > 32 | > 32 | > 32 | > 32 | > 32
6 | CCCCOCCCN/C(C)=C1/C(=O)N2[C@@H](C(C)(C)C)OC[C@]2(C(=O)OCC)C1=O | > 32 | > 32 | > 32 | > 32 | > 32 | > 32 | > 32 | > 32 | > 32 | > 32 | > 32 | > 32 | > 32 | > 32 | > 32
7 | C/C(NCCOc1ccccc1)=C1\C(=O)N2[C@H](C(C)(C)C)OC[C@@]2(C)C1=O (racemic) | < 0.06 | 4 (≈ 10.7 µM) | > 32 | 1 (≈ 2.68 µM) | 4 (≈ 10.7 µM) | 8 (≈ 21.5 µM) | 8 (≈ 21.5 µM) | > 32 | > 32 | 4 (≈ 10.7 µM) | 1 (≈ 2.68 µM) | > 32 | 8 (≈ 21.5 µM) | 2 | 1 (≈ 2.68 µM)
8 | CCCC(=O)N1CC(=O)/C(=C(\CCCCc2ccccc2)NC2CC(C)(C)N(C)C(C)(C)C2)C1=O | > 32 | > 32 | > 32 | > 32 | > 32 | > 32 | > 32 | > 32 | > 32 | > 32 | > 32 | > 32 | > 32 | > 32 | > 32
9 | C/C(NC12CC3CC(CC(C3)C1)C2)=C1\C(=O)N2[C@H](C(C)(C)C)OC[C@@]2(C)C1=O (mixture of isomers) | 16 | > 64 | > 32 | > 64 | > 64 | > 64 | > 64 | > 32 | > 32 | > 64 | > 64 | > 32 | > 64 | > 64 | > 64
10 | CCOC(=O)[C@]12CO[C@H](C(C)(C)C)N1C(=O)/C(=C(\C)NCc1ccc(C)o1)C2=O | > 32 | > 32 | > 32 | > 32 | > 32 | > 32 | > 32 | > 32 | > 32 | > 32 | > 32 | > 32 | > 32 | > 32 | > 32
11 | C/C(NCCOc1ccccc1)=C1/C(=O)[C@@H]2CCCC(=O)N2C1=O | > 32 | > 32 | > 32 | > 32 | > 32 | > 32 | > 32 | > 32 | > 32 | > 32 | > 32 | > 32 | > 32 | > 32 | > 32
12 | CCCCCCCCCC/C(NCCCOC(C)C)=C1\C(=O)C(CCSC)N(C(C)=O)C1=O (configuration not stated) | > 32 | > 32 | > 32 | > 32 | > 32 | > 32 | > 32 | > 32 | > 32 | > 32 | > 32 | > 32 | > 32 | > 32 | > 32
13 | CCOC(=O)[C@]12CO[C@H](C(C)(C)C)N1C(=O)/C(=C(\C)N1CCN(C3CCCCC3)CC1)C2=O | > 32 | > 32 | > 32 | > 32 | > 32 | > 32 | > 32 | > 32 | > 32 | > 32 | > 32 | > 32 | > 32 | > 32 | > 32
14 | C/C(NCCOc1ccccc1)=C1/C(=O)[C@@H]2CO[C@@H](C(C)(C)C)N2C1=O | > 32 | > 32 | > 32 | > 32 | > 32 | > 32 | > 32 | > 32 | > 32 | > 32 | > 32 | > 32 | > 32 | > 32 | > 32
15 | CC1CCCCN1CCCN/C(CC12CC3CC(C)(CC(C)(C3)C1)C2)=C1/C(=O)[C@@H]2CCCC(=O)N2C1=O (some centres not stated) | > 32 | > 32 | > 32 | > 32 | > 32 | > 32 | > 32 | > 32 | > 32 | > 32 | > 32 | > 32 | > 32 | > 32 | > 32
16 | CCCCCCN/C(=C1/C(=O)CNC1=O)c1ccccc1 | > 32 | > 32 | > 32 | > 32 | > 32 | > 32 | > 32 | > 32 | > 32 | > 32 | > 32 | > 32 | > 32 | > 32 | > 32
17 | CCCCCCCCCN/C(C)=C1/C(=O)N2[C@@H](C(C)(C)C)OC[C@]2(C(=O)OC)C1=O | > 32 | > 32 | > 32 | > 32 | > 32 | > 32 | > 32 | > 32 | > 32 | > 32 | > 32 | > 32 | > 32 | > 32 | > 32
18 | O=C1CNC(=O)/C1=C(\NC1CCCCC1)c1cccc2ccccc12 | > 32 | > 32 | > 32 | > 32 | > 32 | > 32 | > 32 | > 32 | > 32 | > 32 | > 32 | > 32 | > 32 | > 32 | > 32
19 | CSCCC1C(=O)/C(=C(\CC23CC4CC(C)(CC(C)(C4)C2)C3)NCC(C)(C)CN(C)C)C(=O)N1C(C)=O (configuration not stated) | 4 (≈ 7.52 µM) | > 64 | > 32 | > 64 | > 64 | > 64 | > 64 | > 32 | > 32 | > 64 | > 64 | > 32 | > 64 | > 64 | > 64
20 | CC(=O)NC[C@H]1CN(c2ccc(N3CCOCC3)c(F)c2)C(=O)O1 [LINEZOLID] | 4 (≈ 11.9 µM) |  |  | 2 (≈ 5.93 µM) |  |  |  |  |  | 16 (≈ 47.4 µM) |  |  |  |  | 
21 | C/C(NCCOc1ccccc1Cl)=C1/C(=O)CN(C(=O)OC(C)(C)C)C1=O | 32 (≈ 81 µM) | > 64 | > 32 | > 64 | > 64 |  | > 64 | > 32 | > 32 | > 64 | > 64 | > 32 | > 64 | > 64 | > 64
22 | O=C(O)c1cn(C2CC2)c2cc(N3CCNCC3)c(F)cc2c1=O [CIPROFLOXACIN] | ≤ 0.06 | 0.5 (≈ 1.51 µM) |  | 32 (≈ 96.6 µM) | 1 (≈ 3.02 µM) | 0.12 (≈ 0.362 µM) | 0.12 (≈ 0.362 µM) |  |  | 0.5 (≈ 1.51 µM) | 1 (≈ 3.02 µM) |  |  | 1 | 1 (≈ 3.02 µM)
